Laboratory results published in patent publication US8114412B2, “T. cruzi-derived neurotrophic agents and methods of use therefor” (priority 1999, dated 2012).
Entries after “also recorded” stand apart in the source; their conditions may differ.

What was measured:
human Schwann cells = experiment: Serum withdrawal-induced apoptosis of immortalized human Schwann cells (DAPI); format: cell-based; details: for inhibition of apoptosis of Schwann cells by peptides: further studies
PC12 cells [1] = experiment: Trophic factor withdrawal-induced apoptosis of PC12 cells (DAPI/TUNEL); format: cell-based, rat; details: for inhibition of apoptosis of PC12 cells by peptides: further studies; for protection of PC12 cells from apoptosis induced by trophic factor withdrawal: 17 hours
Description: (§1) PC12 cells were obtained from ATCC (Manassas, Va. (Accession No. CRL-1721)) and cultured on collagen-coated dishes in RPMI 1640 supplemented with 10% horse serum and 5% fetal bovine serum (Greene, L. A. and Tishler, A. S., Proc. Natl. Acad. Sci. USA, 73: 2424-2428 (1976)). For differentiation and survival experiments, cells were washed three times in serum-free RPMI/0.2% BSA, plated in the same medium in collagen-coated plastic dishes at 2×10^5/ml, without and with growth factors, TS, recombinant proteins, synthetic peptides, for the time and concentrations indicated in the Figures.
Cell staining with 4,6-diamino-2-phenylindole (DAPI). Cells were fixed with 4% formaldehyde in PBS for 5 minutes, washed with PBS, stained with 10 μg/ml DAPI (Sigma) for 2 minutes, washed with PBS, and visualized under UV light using a fluorescent microscope. About 300-400 cells were examined under the microscope to determine the percentage of apoptotic cells.
Cell DNA nick end labeling (TUNEL) (Gavrieli, Y., et al., J. Cell. Biol. 119: 493-501 (1992)) assay was performed using a kit purchased from Boehringer Mannheim as described by the manufacturer.
(§2) Protection against apoptosis of PC12 cells in serum-free medium containing a test agent (agent N)(e.g., protection induced by TS, TS fragments, NGF or other growth factors), was calculated by the formula: 100%-[(apoptosis(%) of cells kept in RPMI containing test agent N÷apoptosis (%) of cells kept in RPMI)×100%]. Testing the effect of wortmannin (Sigma) and LY294002 (Sigma) in inhibiting the neuroprotection of TS was performed following the protocol described by others (Yao and Cooper, Science, 267:2003-2006 (1995); D'Mello et al., J. Neurosci 17:1548-1560 (1997)). In brief, PC12 cells were switched from growth medium to RPMI without and with TS or various other growth factors. After 24 hr, wortmannin and LY294002 were added to the cultures. After another 24 hrs, cells were examined for apoptosis by the DAPI assay, as above.

[2] = tested on: primary cultures of rat Schwann cells; details: reported (Weiner and Chun 1999); cited from earlier work
PC12 cells [3] = experiment: Neurite outgrowth assay in PC12 cells; format: cell-based, rat
Description: as §1
96-well microtiter plates were coated overnight at 4° C. with the TS or peptides or fragments thereof, or with control proteins laminin (Ln) or bovine serum albumin (BSA) at 500 μg/ml. After removing the compounds, the plates were further incubated with 1% BSA for 1 hour at room temperature and immediately used as substratum for PC12 or N18 (Prasad, K. N., Biol Rev Camb Philos Soc, 66:431-451 (1991)) cells in serum-free RPMI/0.2% BSA. Neurite outgrowth was measured using a phase-contrast microscope 17 hours later.

normal human neutrophils = experiment: IL-6 production by normal human neutrophils; format: cell-based
[4] = tested on: human intestinal microvascular endothelial cells (HIMEC); experiment: IL-6 secretion by HIMEC (ELISA); format: cell-based; details: 24 hrs culture
Method: (§3) Primary cultures of human intestinal microvascular endothelial cells (HIMEC) isolated from normal jejunal mucosa/submucosal tissue were prepared as described (Strong et al., Gastroenterology 114: 1244-1256 (1998)). The HIMEC were cultured in fibronectin-coated plasticware in MCDB medium (Sigma) supplemented with 20% FBS, 90 μg/ml heparin and 50 μg/ml endothelial cell growth factor (Sigma). T-24 cells (ATCC Accession No. HTB-4) were cultured in M199 medium supplemented with 10% FBS. PBMC were purified by Ficoll-Paque gradient as described (Current Protocols in Immunology, pp 7.1.1-7.1.2). Vero cells (ATCC Accession No. CCL-81) were grown in RPMI medium with 5% Nu serum and infected with the Silvio X-10/4 of T. cruzi as described previously (Chuenkova et al., J. Exp. Med. 181: 1693-1703, (1995)).
Endothelial cells and T-24 cells were plated on 24-well plates at a density of 1×10^3 cells/well, while peripheral blood mononuclear cells (PBMC) were plated in the similar wells at 1×10^6/well. Triplicat cultures of cells were incubated test agents for a predetermined amount of time. […] Cytokines and chemokines released in the culture supernatants were measured by ELISA assay following the instructions of the manufacturer (Endogen). The cytokines tested were IL-1β, IL-4, IL-8, IL-10, IL-12, IFN-γ, TNF-α, and the chemokines RANTES and MCP-1. […]

PC12 cells [5] = experiment: Reversal of TS-induced neuroprotection by PI-3 kinase inhibitors in PC12 cells; format: cell-based, rat; parameters: neuronal viability relative to TS-F without wortmannin / neuronal viability relative to TS-F+CNTF without wortmannin: dose or concentration left out as unconfirmed
Method: as §2

[6] = tested on: peripheral blood mononuclear cells (PBMC); experiment: IL-6 secretion by PBMC (ELISA); format: cell-based, human; parameters: IL-6 secretion by PBMC: dose or concentration left out as unconfirmed; details: 24 hrs culture
Method: as §3
Endothelial cells and T-24 cells were plated on 24-well plates at a density of 1×10^3 cells/well, while peripheral blood mononuclear cells (PBMC) were plated in the similar wells at 1×10^6/well. Triplicat cultures of cells were incubated test agents for a predetermined amount of time. […] Cytokines and chemokines released in the culture supernatants were measured by ELISA assay following the instructions of the manufacturer (Endogen). The cytokines tested were IL-1β, IL-4, IL-8, IL-10, IL-12, IFN-γ, TNF-α, and the chemokines RANTES and MCP-1. Negative controls were cells incubated in medium containing polymixin B at 10 μg/ml, and positive controls were cells incubated with bacterial LPS at the low ng/ml range (for PBMC or HIMEC) or in the μg/ml range for carcinoma T-24 cells. In some experiments, IL-1β, or TNFα were used as positive control for cytokine release.
TR peptides (Table 2) were synthesized at the Tufts Synthesis Facility (Boston, Mass.). Each peptide was purified by HPLC, and the number of amino acids and molecular weight of each peptide verified by mass spectrometry. Peptides were dissolved in growth medium (10% FCS in RPMI) and added at various concentrations to 1×10^6 PBMC/well in 24-well plates. After 24 hrs, IL-6 was assayed by ELISA in the conditioned supernatants.

N18 cells = experiment: Neurite outgrowth assay in N18 cells; format: cell-based; details: immobilized proteins coated at 500 μg/ml, 17 hours (FIG. 3A)
Method: FIG. 3A is a graph showing that neurite outgrowth in N18 cells is induced by immobilized laminin (Ln), immobilized TS and immobilized fragments of TS. Proteins were immobilized by incubating plates which contained wells filled with solutions of the proteins (protein concentration was 500 μg/ml) at 4° C. overnight. The protein solutions were removed and the plates were further incubated with 1% BSA at room temperature for one hour. N18 cells were cultured in the coated wells in serum-free RPMI-1640/0.2% BSA for 17 hours, and neurite outgrowth was measured by phase-contrast microscopy. […] Ln, laminin; TS, purified T. cruzi trans-sialidase; 7F, recombinant TS from clone 7F; 19Y, recombinant TS from clone 19Y; TS-F, recombinant fragment consisting of amino acid residues 33-666 of TS (SEQ ID NO:2); TS-CC-47, recombinant fragment consisting of amino acid residues 79-478 of TS (SEQ ID NO:2); TS-Cat-47, recombinant fragment consisting of amino acid residues 79-415 of TS (SEQ ID NO:2); BSA, bovine serum albumin.
96-well microtiter plates were coated overnight at 4° C. with the TS or peptides or fragments thereof, or with control proteins laminin (Ln) or bovine serum albumin (BSA) at 500 μg/ml. […] Neurite outgrowth was measured using a phase-contrast microscope 17 hours later.

[7] = neurite outgrowth assay, concentration not given
[8] = synthetic peptides 1 μM, DAPI (FIG. 6B)

| Compound | apoptosis suppressing effect of peptide in presence of PI-3 kinase inhibitor LY294002, Schwann cells (human Schwann cells) | inhibition of apoptosis of Schwann cells by peptides (human Schwann cells) | apoptosis suppressing effect of peptide in presence of PI-3 kinase inhibitor LY294002, PC12 cells (PC12 cells [1]) | inhibition of apoptosis of PC12 cells by peptides (PC12 cells [1]) | neurite outgrowth in PC12 cells (PC12 cells [3]; [7]) | other results |
| --- | --- | --- | --- | --- | --- | --- |
| GNASQNYWEDAYRC [CYN2] | inhibited | suppressed apoptosis but was less active | inhibited | suppressed apoptosis but was less active |  |  |
| lysophosphatidic acid |  |  |  |  |  | active dose for primary cultures of rat Schwann cells [2]: ≥ 10 nM |
| RQRLPKRMGGSYRCVNASTAH [CFN1] | inhibited | potent suppressors of apoptosis | inhibited | potent suppressors of apoptosis | had direct neurotrophic activity |  |
| TNF-A |  |  |  |  |  | IL-6 production by normal human neutrophils (normal human neutrophils): did elicit secretion of IL-6 |
| VCNA: neuraminidase from Vibrio cholera, Calbiochem [reference compound] |  |  |  |  | did not induce neurite outgrowth | neurite outgrowth in PC12 cells (PC12 cells [3]; soluble in serum-free RPMI-1640/0.2% BSA, collagen coated dishes, 16 hours, NGF 0.1 μg/ml, VCNA 2.4 μg/ml, TS 1 μg/ml): does not induce neurite outgrowth; protection of PC12 cells from apoptosis induced by trophic factor withdrawal (PC12 cells [1]; serum-free RPMI-1640/0.2% BSA, DAPI or TUNEL): did not; IL-6 secretion by HIMEC [4]: did not stimulate detectable IL-6 secretion |
| GNASQNVWEDAYRCVNASTAN [C19Y21] | inhibited | potent suppressors of apoptosis | inhibited | potent suppressors of apoptosis |  |  |
| COC[C@H]1OC(=O)c2coc3c2[C@@]1(C)C1=C(C3=O)[C@@H]2CCC(=O)[C@@]2(C)C[C@H]1OC(C)=O [wortmannin] |  |  |  |  |  | neuronal viability relative to TS-F without wortmannin (PC12 cells [5]; wortmannin with TS-F): 57±2%; neuronal viability relative to TS-F+CNTF without wortmannin (PC12 cells [5]; wortmannin with TS-F+CNTF): 80±3% |
| RQRLPKRMGGSYRC [peptide C14] | inhibited | potent suppressors of apoptosis | inhibited | potent suppressors of apoptosis | had direct neurotrophic activity; also recorded: induce dose dependent outgrowth of neurites | protection of PC12 cells from apoptosis induced by trophic factor withdrawal (PC12 cells [1]; [8]): protected PC12 cells from apoptosis |
| DSSAHGAPSTPA [peptide TR1] |  |  |  |  |  | IL-6 secretion by PBMC [6]: less active |
| DSSAHGAPSTPADSSAHGTPSTPVDSSAHGTPSTPADSSAHSTPSTPA [TR4] |  |  |  |  |  | IL-6 secretion by PBMC [6]: active in promoting IL-6 release |
| DSSAHGAPSTPADSSAHGTPSTPV [TR2] |  |  |  |  |  | IL-6 secretion by PBMC [6]: less active |
| YSVDDGETWE [peptide B2, control peptide] |  | did not inhibit apoptosis |  | did not inhibit apoptosis | did not induce neurite outgrowth; also recorded: did not promote neurite outgrowth |  |
| DSSAHGAPSTPADSSAHGTPSTPVDSSAHGTPSTPA [TR3] |  |  |  |  |  | IL-6 secretion by PBMC [6]: less active |
| DSSAHGTPSTPA [peptide TR, control peptide derived from the tandem repeat] |  | did not inhibit apoptosis |  | did not inhibit apoptosis | did not induce neurite outgrowth; also recorded: did not promote neurite outgrowth |  |
| laminin [reference compound] |  |  |  |  |  | neurite outgrowth in N18 cells (N18 cells): induced |
| DSSAHGAPSTPADSSAHGTPSTPVDSSAHGTPSTPADSSAHSTPSTPADSSAHSTPSTPA [TR5] |  |  |  |  |  | IL-6 secretion by PBMC [6]: active in promoting IL-6 release |
| QPLRRQRVVVVPLSPRLVLLAFCRQRLPLKRMGGSYRCVNASTAN [peptide C44] | inhibited | potent suppressors of apoptosis | inhibited | potent suppressors of apoptosis | had direct neurotrophic activity; also recorded: induce dose dependent outgrowth of neurites | protection of PC12 cells from apoptosis induced by trophic factor withdrawal (PC12 cells [1]; [8]): protected PC12 cells from apoptosis |
| VNASTAN [CYFN] | inhibited | did not inhibit apoptosis | inhibited | did not inhibit apoptosis |  |  |
